From PMC12006171, “Marsupial cathelicidins: characterization, antimicrobial activity and evolution in this unique mammalian lineage” (Frontiers in Immunology, 2025)
Converted amounts (≈) assume the structure as drawn. Read-outs that look alike come from different tables or passages of the source. Where a SMILES comes first, the peptide text is derived from it.

Key:
[1] = system: three fungi (Candida krusei, Candida parapsilosis, Candida albicans); parameters: method as in 4 sources, ref Peel et al 2016 ||| ref Peel et al 2021 ||| ref Wang et al 2011 ||| ref Peel et al 2017; details: cited from earlier work
[2] = system: six bacteria (S. aureus, E. coli, P. aeruginosa; ATCC and clinical isolate); parameters: method as in 4 sources, ref Peel et al 2016 ||| ref Peel et al 2021 ||| ref Wang et al 2011 ||| ref Peel et al 2017; details: cited from earlier work
[3] = system: Staphylococcus aureus ATCC 29213; experiment: microbe, parasite or virus in culture; type: cell-based; details: for MIC: read-out: MIC S. aureus ATCC
Protocol: (§1) Antimicrobial testing of 78 cathelicidin MPs was performed in two phases as outlined in Figure 1 . In phase I, 40 peptides (27 extant and 13 ancestral) were selected for testing based on rank (outlined above) and similarity to published marsupial cathelicidins with known antimicrobial activity ([33], [41]–[43]). These peptides were tested against nine bacteria (Staphylococcus aureus ATCC 29213 and clinical isolate, Escherichia coli ATCC 25922 and clinical isolate, Pseudomonas aeruginosa ATCC 27853 and clinical isolate, Streptococcus agalactiae ATCC 12386 and clinical isolate, Streptococcus pneumoniae ATCC 49619) and three fungi (Candida krusei ATCC 6258, Candida parapsilosis ATCC 22019, and Candida albicans clinical isolate). Details regarding these strains are available in Supplementary Table 4 . The antimicrobial activity of cathelicidins was determined as the minimum inhibitory concentration (MIC), which was the lowest concentration of cathelicidin that prevented visible bacterial or fungal growth, relative to the negative control. […] Minimum bactericidal concentration (MBC) and/or minimum fungicidal concentration (MFC) was conducted to determine microbicidal versus static action. Activity against S. aureus ATCC, E. coli ATCC, and Pseudomonas aeruginosa ATCC 27853 was examined in the presence of divalent cations to determine the impact of inhibitors.
(§2) In phase II, the remaining 38 peptides (37 extant and one ancestral) were tested against six bacteria (S. aureus ATCC and clinical isolate, E. coli ATCC and clinical isolate, and P. aeruginosa ATCC and clinical isolate). […] No further testing on phase II peptides was performed. Detailed methods for all assays are provided in subsequent sections.
(§3) Antimicrobial activity was determined using a broth microdilution susceptibility assay in 96 well polypropylene plates according to Clinical Laboratory Standards Institute guidelines M07-A and M26A as described previously ([33], [42], [43]). The bacterial and fungal isolates from humans and animals used in this study are outlined in Supplementary Table 4 . Only yeasts were included in the panel of fungi as they have been used in the susceptibility testing of eutherian ([3], [81]–[83]) and other marsupial cathelicidins previously ([33], [42], [43]). Cathelicidin mature peptides were solubilized in DMSO and serially diluted in duplicate from 128-0.25μg/mL in a final volume of 100µL. For bacteria, cathelicidins were diluted in Mueller Hinton Broth (MHB) with or without 10% lysed horse blood, and with (MH II B) or without (MHB) calcium and magnesium cations. For fungi, cathelicidins were diluted in Roswell Park Memorial Institute medium (RPMI)-1640 MOPS. Ampicillin or tetracycline were included as a positive control for Gram-positive and -negative bacteria respectively, while amphotericin B was used for fungi. A media-only negative control and growth control (no cathelicidin) were also included on each plate. Bacteria were sub-cultured on Muller Hinton agar (MHA) or sheep blood agar (BA), and fungi on Sabouraud dextrose agar (SAB), 20–24 hours prior to the test. Colonies were suspended in saline, the concentration adjusted to a 0.5 McFarland standard, and then diluted in media to a concentration of 1.0 x 10^6 cells/mL. Then, 100μL was added to each well of the cathelicidin dilution plate, giving a final inoculum density of 5 x 10^5 CFU/mL and cathelicidin concentration of 64-0.125μg/mL. Colony counts were performed on MHA/BA/SAB to confirm inoculum density. All plates were incubated at 35°C for 20–24 hours, depending on the strain.
(§4) Colonies were counted and compared to the colony count of the starting inoculum.

[4] = system: Pseudomonas aeruginosa ATCC 27853; experiment: microbe, parasite or virus in culture; type: cell-based; details: read-out: MIC P. aeruginosa ATCC
Protocol: as §1, §2, §3, §4

[5] = system: Staphylococcus aureus clinical isolate - animal; experiment: microbe, parasite or virus in culture; type: cell-based; details: for MIC: read-out: MIC S. aureus
Protocol: as §1, §2, §3, §4

[6] = system: Escherichia coli ATCC 25922; experiment: microbe, parasite or virus in culture; type: cell-based; details: for MIC: ATCC 25922, read-out: MIC E. coli ATCC
Protocol: as §1, §2, §3, §4

[7] = system: Escherichia coli clinical isolate - animal; experiment: microbe, parasite or virus in culture; type: cell-based; details: for MIC: clinical isolate - animal
Protocol: as §1, §2, §3, §4

[8] = system: Pseudomonas aeruginosa clinical isolate - animal; experiment: microbe, parasite or virus in culture; type: cell-based; details: read-out: MIC P. aeruginosa
Protocol: as §1, §2, §3, §4

[9] = mature peptide (MP), Y/N summary, ref Peel et al 2017
[10] = mature peptide, Y/N summary from earlier study, ref Peel et al 2021
[11] = clinical isolate, µM equivalent of Table 3

## LKKIFGSIVKKAVSKGVAEGLKAVDEARKAEKKGKK [ModoCath1]
[1]; [9]
  Antifungal (MIC <64ug/mL): N (Peel et al 2017) (Antifungal (MIC <64ug/mL))
[2]; [9]
  Antibacterial (MIC <64ug/mL): N (Peel et al 2017) (Antibacterial (MIC <64ug/mL))

## STILEDPGKIRERRDIGEEPIQKKQKMYRDQMQ [SahaCath7]
[1]; [10]
  Antifungal (MIC <64ug/mL): N (Peel et al 2021) (Antifungal (MIC <64ug/mL))
[2]; [10]
  Antibacterial (MIC <64ug/mL): N (Peel et al 2021) (Antibacterial (MIC <64ug/mL))

## IKIFIPKGFYKGIQLVNEIIKENNERQKQKP [ModoCath12]
[1]; [9]
  Antifungal (MIC <64ug/mL): N (Peel et al 2017) (Antifungal (MIC <64ug/mL))
[2]; [9]
  Antibacterial (MIC <64ug/mL): N (Peel et al 2017) (Antibacterial (MIC <64ug/mL))

## PKQKNGSKNRRFRIGGYTMISMKQPRVQKAPYMEAL [ModoCath9]
[1]; [9]
  Antifungal (MIC <64ug/mL): N (Peel et al 2017) (Antifungal (MIC <64ug/mL))
[2]; [9]
  Antibacterial (MIC <64ug/mL): N (Peel et al 2017) (Antibacterial (MIC <64ug/mL))

## CC[C@H](C)[C@H](NC(=O)[C@H](C)NC(=O)[C@H](CC(N)=O)NC(=O)[C@H](CCCCN)NC(=O)[C@@H](NC(=O)[C@@H](NC(=O)[C@H](CC(N)=O)NC(=O)[C@H](CCCCN)NC(=O)[C@@H](NC(=O)[C@H](CCCCN)NC(=O)[C@H](CC(=O)O)NC(=O)CNC(=O)[C@H](C)NC(=O)[C@H](CCCNC(=N)N)NC(=O)[C@H](CCCCN)NC(=O)[C@H](CC(C)C)NC(=O)[C@H](Cc1ccccc1)NC(=O)[C@H](CC(N)=O)NC(=O)[C@H](CCCCN)NC(=O)[C@H](Cc1ccccc1)NC(=O)[C@H](CCCCN)NC(=O)[C@H](CCC(=O)O)NC(=O)[C@H](Cc1ccccc1)NC(=O)[C@@H](NC(=O)[C@H](CCCNC(=N)N)NC(=O)[C@H](CC(C)C)NC(=O)[C@H](CCCCN)NC(=O)[C@H](CCCCN)NC(=O)[C@@H](NC(=O)[C@H](CC(N)=O)NC(=O)[C@H](CCC(=O)O)NC(=O)[C@@H]1CCCN1C(=O)[C@@H](N)CCCNC(=N)N)[C@@H](C)CC)C(C)C)[C@@H](C)CC)[C@@H](C)O)[C@@H](C)CC)C(=O)N[C@@H](CC(N)=O)C(=O)N[C@@H](CC(N)=O)C(=O)N[C@@H](CC(C)C)C(=O)N[C@@H](Cc1ccccc1)C(=O)N[C@@H](CO)C(=O)O [PeguCath3] (H-RPENIKKLRVFEKFKNFLKRAGDKIKNTIKNAINNLFS-OH)
[3]; ATCC 29213
  MIC: >14.1 µM
[4]; ATCC 27853
  MIC: >14.1 µM
[5]; clinical isolate - animal
  MIC: >14.1 µM
[6]
  MIC: 14.1 µM (≈ 63.9 µg/mL)
[7]
  MIC: >14.1 µM
[8]; clinical isolate - animal
  MIC: >14.1 µM

## CC[C@H](C)[C@H](NC(=O)[C@H](CC(N)=O)NC(=O)[C@H](CCCNC(=N)N)NC(=O)[C@H](CC(C)C)NC(=O)[C@H](CCCCN)NC(=O)[C@H](CCCNC(=N)N)NC(=O)[C@H](Cc1ccccc1)NC(=O)[C@@H](NC(=O)[C@H](CC(N)=O)NC(=O)[C@H](CCC(N)=O)NC(=O)[C@H](CC(C)C)NC(=O)[C@@H](NC(=O)[C@H](CCCNC(=N)N)NC(=O)[C@H](Cc1ccc(O)cc1)NC(=O)[C@H](CCCCN)NC(=O)[C@H](CCC(N)=O)NC(=O)[C@H](Cc1ccc(O)cc1)NC(=O)[C@@H](NC(=O)[C@H](CC(C)C)NC(=O)[C@@H](N)CC(N)=O)[C@@H](C)CC)[C@@H](C)CC)C(C)C)C(=O)N[C@@H](Cc1ccccc1)C(=O)N[C@@H](CO)C(=O)N[C@@H](CCCNC(=N)N)C(=O)NCC(=O)N[C@@H](CCCNC(=N)N)C(=O)N[C@@H](CC(=O)O)C(=O)N[C@@H](CC(=O)O)C(=O)N[C@@H](CCCCN)C(=O)N[C@@H](CCC(=O)O)C(=O)O [MaruCath9] (H-NLIYQKYRILQNVFRKLRNIFSRGRDDKE-OH)
[3]; ATCC 29213
  MBC S. aureus ATCC: 8.6 µM (≈ 31.7 µg/mL)
  MIC S. aureus ATCC: 8.6 µM (≈ 31.7 µg/mL)
[4]; ATCC 27853
  MIC: >17.3 µM
[5]; clinical isolate - animal
  MBC S. aureus: 8.6 µM (≈ 31.7 µg/mL)
  MIC S. aureus: 8.6 µM (≈ 31.7 µg/mL)
[6]
  MIC: >17.3 µM
[7]
  MIC: >17.3 µM
[8]; clinical isolate - animal
  MIC: >17.3 µM

## KDILKNNNIIILPGSNEK [OranCath1]
[2]; mature peptide (MP), Y/N summary, ref Wang et al 2011
  Antibacterial (MIC <64ug/mL): Y (Wang et al 2011) (Antibacterial (MIC <64ug/mL))

## CC[C@H](C)[C@H](NC(=O)[C@H](CO)NC(=O)[C@H](CCCNC(=N)N)NC(=O)CNC(=O)[C@@H]1CCCN1C(=O)[C@H](CCCNC(=N)N)NC(=O)[C@@H]1CCCN1C(=O)[C@H](CCCNC(=N)N)NC(=O)[C@@H]1CCCN1C(=O)[C@H](CCCNC(=N)N)NC(=O)[C@@H]1CCCN1C(=O)[C@H](Cc1ccccc1)NC(=O)[C@H](CC(N)=O)NC(=O)[C@@H]1CCCN1C(=O)[C@H](CCCNC(=N)N)NC(=O)[C@@H]1CCCN1C(=O)[C@H](Cc1ccccc1)NC(=O)[C@H](CCCNC(=N)N)NC(=O)[C@@H]1CCCN1C(=O)[C@H](CCCNC(=N)N)NC(=O)[C@@H]1CCCN1C(=O)[C@H](CC(C)C)NC(=O)[C@H](Cc1ccc(O)cc1)NC(=O)[C@@H]1CCCN1C(=O)[C@H](CCCNC(=N)N)NC(=O)[C@H](CCCNC(=N)N)NC(=O)[C@@H](NC(=O)[C@H](CCCNC(=N)N)NC(=O)[C@H](CCCNC(=N)N)NC(=O)[C@H](C)NC(=O)[C@H](C)NC(=O)[C@H](CC(C)C)NC(=O)[C@H](CC(C)C)NC(=O)CN)[C@@H](C)CC)C(=O)O [SmcrCath12] (H-GLLAARRIRRPYLPRPRFPRPNFPRPRPRPGRSI-OH)
[3]; µM equivalent of Table 3
  MIC: >15.6 µM
[4]; µM equivalent of Table 3
  MIC: >15.6 µM
[5]; [11]
  MIC: >15.6 µM
[6]; value in brackets, µM equivalent of Table 3
  MBC E. coli ATCC: 1.9 µM
[6]; µM equivalent of Table 3
  MIC E. coli ATCC: 1.9 µM
[7]; clinical isolate, value in brackets, µM equivalent of Table 3
  MBC E. coli: 3.9 µM
[7]; [11]
  MIC E. coli: 3.9 µM
[8]; [11]
  MIC: >15.6 µM
